Source: patent US20230116972A1, “CD38 MODULATORS AND METHODS OF USE THEREOF” (Cytokinetics, Inc., priority 2021, published 2023)

What was measured:
[1] = molecular target: T1, human CD38 (Homo sapiens, UniProt P28907); test: human recombinant CD38 enzyme assay (hydrolysis of NAD+); assay type: biochemical; details: human recombinant CD38, 0.4 nM enzyme, 62.5 μM NAD+; read-out: hCD38 BioChem IC50
T1 sequence (P28907 1-300): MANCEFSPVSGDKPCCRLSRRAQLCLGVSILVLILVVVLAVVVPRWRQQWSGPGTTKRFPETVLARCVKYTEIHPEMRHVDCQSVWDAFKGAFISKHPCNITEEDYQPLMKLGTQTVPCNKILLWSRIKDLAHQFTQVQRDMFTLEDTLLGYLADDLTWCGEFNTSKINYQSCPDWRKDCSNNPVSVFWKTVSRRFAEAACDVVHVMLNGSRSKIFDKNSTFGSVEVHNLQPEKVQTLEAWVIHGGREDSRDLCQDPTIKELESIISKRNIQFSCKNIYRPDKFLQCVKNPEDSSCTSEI
In short: (§1)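 Residual NAD+ after 60 min of cell-free hydrolysis by recombinant mouse or human CD38 at ambient temperature, measured over a dose range. Detection used ADH conversion to NADH, then diaphorase-coupled resazurin-to-resorufin fluorescence (Ex/Em 540/590 nm).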

[2] = molecular target: T2, mouse CD38 (Mus musculus, UniProt P56528); test: mouse recombinant CD38 enzyme assay (hydrolysis of NAD+); assay type: biochemical; details: read-out: mCD38 BioChem IC50
T2 sequence (P56528 1-304): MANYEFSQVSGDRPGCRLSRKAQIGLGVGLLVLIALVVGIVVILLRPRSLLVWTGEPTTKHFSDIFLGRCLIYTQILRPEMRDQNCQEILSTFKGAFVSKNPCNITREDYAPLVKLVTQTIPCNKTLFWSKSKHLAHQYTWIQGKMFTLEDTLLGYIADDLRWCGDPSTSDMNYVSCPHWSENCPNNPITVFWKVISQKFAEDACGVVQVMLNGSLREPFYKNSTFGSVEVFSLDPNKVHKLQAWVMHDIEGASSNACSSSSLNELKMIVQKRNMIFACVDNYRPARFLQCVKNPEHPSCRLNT
In short: as §1

[3] = molecular target: T3, endogenous CD38 in HL60 cells (Homo sapiens, UniProt P28907); test: cellular CD38 assay in HL60 cells (cellular NAD levels); assay type: cell-based; details: all-trans retinoic acid, 24 hours, read-out: hCD38 HL60 ATRA NAD Cell Diaphorase IC50
T3 construct: endogenous in cells; host or cells: HL60 (leukemic cells, treated with all-trans retinoic acid)
T3 sequence (P28907 1-300): T1 sequence (P28907 1-300)
In short: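 Endogenous CD38 inhibition is inferred from NAD levels in HL60 cells after 24 h compound exposure at 20000 cells per well. A lytic cycling readout (0.2 U/mL diaphorase, 0.8 U/mL alcohol dehydrogenase, resazurin, FMN, ethanol, 0.2% Triton X-100, Tris/EDTA pH 8.4) ran 60 min at ambient temperature. Resorufin fluorescence was read at 540/590 nm.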

| SMILES | IC50 [1] [nM] | IC50 [2] [nM] | IC50 [3] [nM] |
| --- | --- | --- | --- |
| COc1ncc(-c2cncn2C)nc1C(=O)N[C@H]1CC[C@H](OC)CC1 [Compound 303, 3-methoxy-N-((1r,4r)-4-methoxycyclohexyl)-6-(1-methyl-1H-imidazol-5-yl)pyrazine-2-carboxamide] | 296 | 62.4 | 10400 |
| COCCOc1cc(C(=O)Nc2ccc(C(F)F)nc2)nc(-c2cncn2C)n1 [Compound 307, N-(6-(difluoromethyl)pyridin-3-yl)-6-(2-methoxyethoxy)-2-(1-methyl-1H-imidazol-5-yl)pyrimidine-4-carboxamide] | 1.5 | 1 | 254 |
| O=C(N[C@H]1CC[C@H](OC(F)(F)F)CC1)c1nccc(-n2ccnc2)n1 [Compound 308, 4-(1H-imidazol-1-yl)-N-((1r,4r)-4-(trifluoromethoxy)cyclohexyl)pyrimidine-2-carboxamide] | 125 | 94.3 | 6270 |
| Cn1cncc1-c1nc(C(=O)Nc2ccc(C(F)(F)F)nc2)cc(C2(C)COC2)n1 [Compound 309, 2-(1-methyl-1H-imidazol-5-yl)-6-(3-methyloxetan-3-yl)-N-(6-(trifluoromethyl)pyridin-3-yl)pyrimidine-4-carboxamide] | 4.2 | 1.3 | 933 |
| Cn1cncc1-c1nc(C(=O)N[C@H]2CC[C@H](OC(F)F)CC2)cc(C2(C)COC2)n1 [Compound 311, N-((1r,4r)-4-(difluoromethoxy)cyclohexyl)-2-(1-methyl-1H-imidazol-5-yl)-6-(3-methyloxetan-3-yl)pyrimidine-4-carboxamide] | 13.5 | 3.8 | 2150 |
| Cn1cncc1-c1ccnc(C(=O)N[C@H]2CC[C@H](OCc3ccccc3)CC2)n1 [Compound 312, N-((1r,4r)-4-(benzyloxy)cyclohexyl)-4-(1-methyl-1H-imidazol-5-yl)pyrimidine-2-carboxamide] | 26.5 | 10.2 | 2790 |
| Cn1cncc1-c1cnc(N)c(C(=O)Nc2ccc(C(F)(F)F)nc2)n1 [Compound 314, 3-amino-6-(1-methyl-1H-imidazol-5-yl)-N-(6-(trifluoromethyl)pyridin-3-yl)pyrazine-2-carboxamide] | 8.9 | 7.5 | 1370 |
| CO[C@H]1CC[C@H](NC(=O)c2cc([C@H]3CC[C@@H](OC)CC3)nc(-c3cncn3C)n2)CC1 [Compound 315, N-((1r,4R)-4-methoxycyclohexyl)-6-((1s,4S)-4-methoxycyclohexyl)-2-(1-methyl-1H-imidazol-5-yl)pyrimidine-4-carboxamide] | 13.7 | 1.8 | 2280 |
| CO[C@H]1CC[C@H](NC(=O)c2cc([C@H]3CC[C@H](OC)CC3)nc(-c3cncn3C)n2)CC1 [Compound 316, N,6-bis((1r,4R)-4-methoxycyclohexyl)-2-(1-methyl-1H-imidazol-5-yl)pyrimidine-4-carboxamide] | 15 | 2 | 1470 |
| CO[C@H]1CC[C@H](NC(=O)c2nc(-c3cncn3C)cnc2N)CC1 [Compound 318, 3-amino-N-((1r,4r)-4-methoxycyclohexyl)-6-(1-methyl-1H-imidazol-5-yl)pyrazine-2-carboxamide] | 18.5 | 13.4 | 1920 |
| Cn1cncc1-c1ccnc(C(=O)Nc2ccc(OC3CC(F)(F)C3)nc2)n1 [Compound 319] | 3.6 | 6 | 964 |
| CC(C)(O)c1ccc(NC(=O)c2nccc(-n3ccnc3)n2)cc1 [Compound 357, N-(4-(2-hydroxypropan-2-yl)phenyl)-4-(1H-imidazol-1-yl)pyrimidine-2-carboxamide] | 5.7 | 10.2 | 940 |
| Cn1cncc1-c1ccnc(C(=O)Nc2ccc(C(C)(C)O)cc2)n1 [Compound 358, N-(4-(2-hydroxypropan-2-yl)phenyl)-4-(1-methyl-1H-imidazol-5-yl)pyrimidine-2-carboxamide] | 4.3 | 5.8 | 1010 |
